{"source": "patent US20170166516A1", "about": "“STABLE POLYMORPH FORM B OF TAPENTADOL HYDROCHLORIDE” (priority 2014, published 2017)", "key": {"[1]": {"assay": "Stability test of polymorphic Form B on storage, followed by PXRD", "assay_type": "physicochemical", "settings": "for change in amount of polymorphic Form A in Form B on storage (PXRD): 2 month storage, ambient temperature, sample contains traces of Form A, Hydrochloride", "protocol": "In FIG. 1 the PXRD pattern of a stability sample experiment 1 are shown as well as PXRD pattern of Tapentadol hydrochloride in polymorphic crystal structure A and in polymorphic crystal structure B. The upper most pattern results from a sample (experiment 1) after a 4 month stability test at 27° C. and 42% RH (relative humidity). The second of top pattern results from the initial sample prior to the stability testing. […] The second last pattern represents the mono-crystal structure of pure Tapentadol Hydrochloride in polymorphic crystal Form B. The last pattern represents the mono-crystal structure of pure Tapentadol Hydrochloride in polymorphic crystal Form A.\nFor Powder X-Ray Diffraction (PXRD) the samples were placed onto a Si-wafer (Bragg-Brentano) or into a standard glass capillary (Ø=0.7 mm) (Example 2). The measurements were performed at room temperature with a D8 Bruker Advance Diffractometer (Cu-Kα1=1.54059 Å, Johansson primary beam monochromator, position sensitive detector) in transmission mode with rotation of the sample."}, "[2]": {"settings": "cited from earlier work; for stability of the crystalline form: ambient conditions, as disclosed in EP 1 612 203 A1, hydrochloride"}}, "note": "Where a name gives a salt, the structure may show the parent alone."}
{"smiles": "CC[C@@H](c1cccc(O)c1)[C@@H](C)CN(C)C", "note": "[Example 3, Tapentadol Hydrochloride]", "values": [{"measurement": "change in amount of polymorphic Form A in Form B on storage (PXRD)", "setting": "[1]", "result": "increase of Form A in Form B was observed"}, {"measurement": "change in amount of polymorphic Form A in Form B on storage (PXRD)", "setting": "[1]; listed as experimental polymorphic Form B", "result": "amount of polymorphic Form A obviously increased"}]}
{"smiles": "CC[C@@H](c1cccc(O)c1)[C@@H](C)CN(C)C", "note": "[Form A, Tapentadol hydrochloride]", "values": [{"measurement": "stability of the crystalline form", "setting": "[2]", "result": "stable under ambient conditions"}]}
{"smiles": "CC[C@@H](c1cccc(O)c1)[C@@H](C)CN(C)C", "note": "[Form B, Tapentadol hydrochloride]", "values": [{"measurement": "stability of the crystalline form", "setting": "[2]", "result": "meta-stable only"}]}
{"smiles": "CC[C@@H](c1cccc(O)c1)[C@@H](C)CN(C)C", "note": "[experiment 1, Tapentadol Hydrochloride]", "values": [{"measurement": "transformation of polymorphic crystal Form B to Form A (PXRD pattern after stability test)", "setting": "[1]; 4 month stability test at 27° C. and 42% RH", "result": "does not show any tendency to disintegrate or to transform to polymorphic crystal Form A"}, {"measurement": "transformation of Form B to polymorph A on storage (PXRD)", "setting": "[1]; several months of storage under ambient conditions, no seeds of Form A", "result": "no transformation to polymorph A"}]}
{"smiles": "CC[C@@H](c1cccc(O)c1)[C@@H](C)CN(C)C", "note": "[stable polymorph B, Tapentadol hydrochloride]", "values": [{"measurement": "duration of stability of polymorphic Form B", "setting": "[2]; ambient temperatures, stabilised by low alkyl carboxylic acids or esters added during crystallization, WO 2013 111161 A1", "result": "several months"}]}
